This test deals with T1, proton-activated Cl− channel (PAC) (Rattus norvegicus, UniProt Q66H28).
T1 construct: gene Pacc1
Nature of the test: whole-cell patch clamp of native IPAC in GH3 cells, pH […], single concentration […]. Type of test: cell-based.

Structures are written as SMILES.

The inhibition is the share of the control response that was lost under treatment. The low end stands for little suppression, the high end for strong suppression.

T1 sequence (Q66H28 whole entry): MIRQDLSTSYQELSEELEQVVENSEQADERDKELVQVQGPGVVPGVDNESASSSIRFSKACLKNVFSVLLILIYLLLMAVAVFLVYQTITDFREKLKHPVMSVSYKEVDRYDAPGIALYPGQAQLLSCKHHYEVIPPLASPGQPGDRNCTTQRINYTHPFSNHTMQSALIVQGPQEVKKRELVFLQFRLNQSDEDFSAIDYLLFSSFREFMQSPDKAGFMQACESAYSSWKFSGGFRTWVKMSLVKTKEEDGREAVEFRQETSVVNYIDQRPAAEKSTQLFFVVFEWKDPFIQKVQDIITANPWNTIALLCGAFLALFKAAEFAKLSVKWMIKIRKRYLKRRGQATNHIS

With `CCCCC1(C2CCCC2)Cc2cc(OCCCC(=O)O)c(Cl)c(Cl)c2C1=O` (stereo not shown) [DCPIB, 4-[(2-Butyl-6,7-dichloro-2-cyclopentyl-2,3-dihydro-1-oxo-1H-inden-5yl)oxy] butanoic acid], the inhibition at 10 µM was 51%.

Source of the values: publication PMC7763472, “High Capability of Pentagalloylglucose (PGG) in Inhibiting Multiple Types of Membrane Ionic Currents” (International Journal of Molecular Sciences, 2020).
